Like-named read-outs stand apart in the source and are kept apart here.
What was measured:
[1] = system: symmetric dimethylation of arginine (SDMA) of PRMT5 substrates in MCF-7 cells; experiment: PRMT5 Cell Target Engagement (TE) Assay; type: cell-based; settings: Homo sapiens, MCF7, 72 h, 3 days treatment, SDMA high content imaging
In short: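 Readout is single-cell nuclear symmetric-dimethylarginine immunofluorescence (Alexa488), normalized to DMSO-treated cells. Compounds were applied to MCF-7 cells for 3 days at 37 °C, top concentration 10000 nM in 1:3 steps over ten points; curves fitted with 4-parameter robust fit.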

[2] = target: T1, Full-length (FL)-PRMT5-MEP50 enzyme complex (Homo sapiens, UniProt O14744); experiment: PRMT5-MEP50 Enzyme Methylation Assay (Version A); type: biochemical
T1 construct: Full-length (FL)-PRMT5-MEP50 enzyme complex (recombinant proteins from baculovirus-transfected Sf21 cells: FL-PRMT5; MW=73837 kDa and FL-MEP50; MW=38614); made in house; host or cells: baculovirus-transfected Sf21 cells
In short: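 Compound was pre-incubated with enzyme for 60 min, then reacted 150 min at 37° C. at final 1.0 nM PRMT5-MEP50, 15 μM SAM and 75 nM biotinylated H4R3(Me1) peptide, in 50 mM Bicine pH 8.0 with 1% DMSO. SAMDI mass-spectrometric readout of Me1→Me2 conversion. EC50 from 4- or 7-parameter regression.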

[3] = second value of 7 parameter biphasic fit, read-out: Enzyme Methylation Assay Version A (EC50 2)
[4] = single EC50 = 4 parameter single site sigmoidal fit, EC50 1 = first value of 7 parameter biphasic fit, read-out: Enzyme Methylation Assay Version A (EC50 or EC50 1)

T1 sequence (O14744 whole entry): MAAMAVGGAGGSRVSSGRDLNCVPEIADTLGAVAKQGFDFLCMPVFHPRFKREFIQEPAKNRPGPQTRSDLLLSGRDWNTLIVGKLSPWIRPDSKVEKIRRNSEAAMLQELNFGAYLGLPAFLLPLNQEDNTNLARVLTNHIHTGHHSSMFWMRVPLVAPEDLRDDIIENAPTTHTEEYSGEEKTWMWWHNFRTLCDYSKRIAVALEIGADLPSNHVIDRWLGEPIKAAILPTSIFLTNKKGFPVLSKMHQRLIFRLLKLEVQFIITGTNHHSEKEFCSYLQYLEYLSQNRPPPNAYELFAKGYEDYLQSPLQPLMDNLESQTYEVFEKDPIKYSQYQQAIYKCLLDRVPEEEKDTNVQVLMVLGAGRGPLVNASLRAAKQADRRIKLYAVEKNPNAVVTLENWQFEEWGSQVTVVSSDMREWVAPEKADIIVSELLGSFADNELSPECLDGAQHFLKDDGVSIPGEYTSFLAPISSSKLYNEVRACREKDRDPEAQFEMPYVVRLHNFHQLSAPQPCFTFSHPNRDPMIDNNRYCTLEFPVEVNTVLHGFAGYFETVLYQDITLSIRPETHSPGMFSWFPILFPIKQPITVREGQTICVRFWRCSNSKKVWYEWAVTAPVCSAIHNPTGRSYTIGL
T1 sequence (Q9BQA1 whole entry partner): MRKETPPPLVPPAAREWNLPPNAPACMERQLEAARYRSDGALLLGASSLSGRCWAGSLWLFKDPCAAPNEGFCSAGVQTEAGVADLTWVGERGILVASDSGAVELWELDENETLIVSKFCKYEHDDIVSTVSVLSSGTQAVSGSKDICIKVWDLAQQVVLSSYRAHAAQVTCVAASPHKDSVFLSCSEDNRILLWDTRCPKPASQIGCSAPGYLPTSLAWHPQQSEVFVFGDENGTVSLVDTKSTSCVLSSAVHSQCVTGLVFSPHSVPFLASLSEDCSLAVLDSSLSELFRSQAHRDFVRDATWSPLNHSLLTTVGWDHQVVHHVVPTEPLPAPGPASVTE

| Compound | EC50 [1] | EC50 [2, 3] | EC50 [2, 4] |
| --- | --- | --- | --- |
| Cc1cnc2nc(C(=O)N3CC[C@]4(Cc5ccccc5CN4)[C@H](O)C3)cn2c1C [Example 127, (5,6-dimethylimidazo[1,2-a]pyrimidin-2-yl)[(3R,3′R)-3′^-hydroxy-1,4-dihydro-1′H,2H-spiro[isoquinoline-3,4′-piperidin]-1′-yl]methanone] | 3950 nM | 34300 nM | 61.7 nM |
| COc1nc2nc(C(=O)N3CC[C@]4(Cc5ccccc5CN4)[C@H](O)C3)cn2cc1C [Example 128, [(3R,3′R)-3′-hydroxy-1,4-dihydro-1′H,2H-spiro[isoquinoline-3,4′-piperidin]-1′-yl](7-methoxy-6-methylimidazo[1,2-a]pyrimidin-2-yl)methanone] | 195 nM | 2690 nM | 5.33 nM |
| O=C(c1cn2cc(O)cnc2n1)N1CC[C@]2(Cc3ccccc3CN2)[C@H](O)C1 [Example 129, [(3R,3′R)-3′-hydroxy-1,4-dihydro-1′H,2H-spiro[isoquinoline-3,4′-piperidin]-1′-yl](6-hydroxyimidazo[1,2-a]pyrimidin-2-yl)methanone] | ≥ 10000 nM |  | 836 nM |
| O=C(c1cn2cc(Br)c(O)cc2n1)N1CC[C@]2(Cc3ccccc3CN2)[C@H](O)C1 [Example 130, (6-bromo-7-hydroxy imidazo[1,2-a]pyridin-2-yl)[(3R,3′R)-3′-hydroxy-1,4-dihydro-1′H,2H-spiro[isoquinoline-3,4′-piperidin]-1′-yl]methanone] | 9600 nM | 19700 nM | 21.4 nM |
| Cc1cn2cc(C(=O)N3CC[C@]4(Cc5ccccc5CN4)[C@H](O)C3)nc2nc1O [Example 131, 2-{[(3R,3′R)-3′-hydroxy-1,4-dihydro-1′H,2H-spiro[isoquinoline-3,4′-piperidin]-1′-yl]carbonyl}-6-methylimidazo[1,2-a]pyrimidin-7(1H)-one] | ≥ 10000 nM | 74100 nM | 70.8 nM |
| COC(C)c1cc(C2CC2)cn2cc(C(=O)N3CC[C@]4(Cc5ccccc5CN4)[C@H](O)C3)nc12 (stereo partly drawn) [Example 132, [6-cyclopropyl-8-(1-methoxyethyl)imidazo[1,2-a]pyridin-2-yl][(3R,3′R)-3′-hydroxy-1,4-dihydro-1′H,2H-spiro[isoquinoline-3,4′-piperidin]-1′-yl]methanone] | 6.61 nM | 123 nM | 0.244 nM |
| CC(C#N)c1cnc2nc(C(=O)N3CC[C@]4(Cc5ccccc5CN4)[C@H](O)C3)cn2c1 (stereo partly drawn) [Example 133, 2-(2-{[(3R,3′R)-3′-hydroxy-1,4-dihydro-1′H,2H-spiro[isoquinoline-3,4′-piperidin]-1′-yl]carbonyl}imidazo[1,2-a]pyrimidin-6-yl)propanenitrile] | 77.4 nM | 16.2 nM | 3.79 nM |
| O=C(c1cn2cc(C3CC3)ncc2n1)N1CC[C@]2(Cc3ccccc3CN2)[C@H](O)C1 [Example 134, (6-cyclopropylimidazo[1,2-a]pyrazin-2-yl)[(3R,3′R)-3′-hydroxy-1,4-dihydro-1′H,2H-spiro[isoquinoline-3,4′-piperidin]-1′-yl]methanone] | 184 nM |  | 143 nM |
| O=C(c1cn2cc(Br)c(C3CC3)nc2n1)N1CC[C@]2(Cc3ccccc3CN2)[C@H](O)C1 [Example 135, (6-bromo-7-cyclopropylimidazo[1,2-a]pyrimidin-2-yl)[(3R,3′R)-3′-hydroxy-1,4-dihydro-1′H,2H-spiro[isoquinoline-3,4′-piperidin]-1′-yl]methanone] | 6.86 nM |  | 10.6 nM |
| Cc1cn2cc(C(=O)N3CC[C@]4(Cc5ccccc5CN4)[C@H](O)C3)nc2c(Br)n1 [Example 138, (8-bromo-6-methylimidazo[1,2-a]pyrazin-2-yl)[(3R,3′R)-3′-hydroxy-1,4-dihydro-1′H,2H-spiro[isoquinoline-3,4′-piperidin]-1′-yl]methanone] | 322 nM |  | 202 nM |
| Cc1nc2ncc(C(=O)N3CC[C@]4(Cc5ccccc5CN4)[C@H](O)C3)n2cc1Br [Example 140, (6-bromo-7-methylimidazo[1,2-a]pyrimidin-3-yl)[(3R,3′R)-3′-hydroxy-1,4-dihydro-1′H,2H-spiro[isoquinoline-3,4′-piperidin]-1′-yl]methanone] | 2090 nM |  | 1390 nM |
| Cc1c(Br)cnc2ncc(C(=O)N3CC[C@]4(Cc5ccccc5CN4)[C@H](O)C3)n12 [Example 141, (6-bromo-5-methylimidazo[1,2-a]pyrimidin-3-yl)[(3R,3′R)-3′-hydroxy-1,4-dihydro-1′H,2H-spiro[isoquinoline-3,4′-piperidin]-1′-yl]methanone] | 4380 nM | 3720 nM | 101 nM |
| O=C(c1ccc2c(O)c(CC(F)(F)F)cnc2c1)N1CC[C@]2(Cc3ccccc3CN2)[C@H](O)C1 [Example 153, ((3R,3′R)-3′-hydroxy-1,4-dihydro-2H-spiro[isoquinoline-3,4′-piperidin]-1′-yl)(4-hydroxy-3-(2,2,2-trifluoroethyl)quinolin-7-yl)methanone] | 414 nM | 2950 nM | 4.3 nM |
| O=C(c1cn2cc(C(F)(F)F)cc(C3CCOC3)c2n1)N1CC[C@]2(Cc3ccccc3CN2)[C@H](O)C1 (stereo partly drawn) [Example 154, ((3R,3′R)-3′-hydroxy-2,4-dihydro-1H-spiro[isoquinoline-3,4′-piperidin]-1′-yl)(8-(tetrahydrofuran-3-yl)-6-(trifluoromethyl)imidazo[1,2-a]pyridin-2-yl)methanone] | 4.42 nM | 266 nM | 0.802 nM |
| O=C(c1cnc2ncc(C(F)(F)F)cn12)N1CC[C@]2(Cc3ccccc3CN2)[C@H](O)C1 [Example 168, [(3R,3′R)-3′-hydroxy-1,4-dihydro-1′H,2H-spiro[isoquinoline-3,4′-piperidin]-1′-yl][6-(trifluoromethyl)imidazo[1,2-a]pyrimidin-3-yl]methanone] | 50.2 nM | 385 nM | 2.56 nM |
| O=C(c1cn2cc(C(F)(F)F)cnc2n1)N1CC[C@]2(Cc3ccccc3CN2)[C@H](O)C1 [Example 169, [(3R,3′R)-3′-hydroxy-1,4-dihydro-1′H,2H-spiro[isoquinoline-3,4′-piperidin]-1′-yl][6-(trifluoromethyl)imidazo[1,2-a]pyrimidin-2-yl]methanone] | 89 nM | 427 nM | 1.51 nM |
| O=C(c1ccc2c(c1)NCCN(CC(F)(F)F)C2=O)N1CC[C@]2(Cc3ccccc3CN2)[C@H](O)C1 [Example 170, 8-{[(3R,3′R)-3′-hydroxy-1,4-dihydro-1′H,2H-spiro[isoquinoline-3,4′-piperidin]-1′-yl]carbonyl}-4-(2,2,2-trifluoroethyl)-1,2,3,4-tetrahydro-5H-1,4-benzodiazepin-5-one] | 19 nM | 1780 nM | 2.56 nM |
| O=C(c1cc2n(n1)CCS(=O)(=O)C2)N1CC[C@]2(Cc3ccccc3CN2)[C@H](O)C1 [Example 177, (5,5-dioxido-6,7-dihydro-4H-pyrazolo[5,1-c][1,4]thiazin-2-yl)((3R,3′R)-3′-hydroxy-1,4-dihydro-2H-spiro[isoqiuinoline-3,4′-piperidin]-1′-yl)methanone] | ≥ 10000 nM |  | 1910 nM |
| Cc1cc(C)n2nc(C(=O)N3CC[C@]4(Cc5ccccc5CN4)[C@H](O)C3)nc2n1 [Example 178, (5,7-dimethyl-[1,2,4]triazolo[1,5-a]pyrimidin-2-yl)((3R,3′R)-3′-hydroxy-1,4-dihydro-2H-spiro[isoquinoline-3,4′-piperidin]-1′-yl)methanone] | 3210 nM | 85100 nM | 129 nM |
| Cc1cc(C(F)F)n2nc(C(=O)N3CC[C@]4(Cc5ccccc5CN4)[C@H](O)C3)nc2n1 [Example 179, (7-(difluoromethyl)-5-methyl-[1,2,4]triazolo[1,5-a]pyrimidin-2-yl)((3R,3′R)-3′-hydroxy-1,4-dihydro-2H-spiro[isoquinoline-3,4′-piperidin]-1′-yl)methanone] | 8760 nM | 69200 nM | 513 nM |
| Cc1nn(C)c2ncc(C(=O)N3CC[C@]4(Cc5ccccc5CN4)[C@H](O)C3)c(Cl)c12 [Example 180, (4-chloro-1,3-dimethyl-1H-pyrazolo[3,4-b]pyridin-5-yl)((3R,3′R)-3′-hydroxy-1,4-dihydro-2H-spiro[isoquinoline-3,4′-piperidin]-1′-yl)methanone] | 1320 nM | 52500 nM | 51.3 nM |
| Cc1cc2ncc(C(=O)N3CC[C@]4(Cc5ccccc5CN4)[C@H](O)C3)c(C)n2n1 [Example 181, (2,7-dimethylpyrazolo[1,5-a]pyrimidin-6-yl)((3R,3′R)-3′-hydroxy-1,4-dihydro-2H-spiro[isoquinoline-3,4′-piperidin]-1′-yl)methanone] | 924 nM | 3980 nM | 20.9 nM |
| O=C(c1cc2oc3ccccc3c2cc1O)N1CC[C@]2(Cc3ccccc3CN2)[C@H](O)C1 [Example 182, ((3R,3′R)-3′-hydroxy-1,4-dihydro-2H-spiro[isoquinoline-3,4′-piperidin]-1′-yl)(2-hydroxydibenzo[b,d]furan-3-yl)methanone] | 155 nM | 1350 nM | 4.57 nM |

Reference: patent US12441730B2, “PRMT5 inhibitors” (Merck Sharp & Dohme LLC, priority 2019, dated 2025)
